Key:
[1] = test system: B. divergens; parameters: method as in PMID 30103207; conditions: bovine erythrocyte cultures, cited from earlier work
[2] = test system: β1 subunit of Bd20S; test: Fluorogenic kinetic assay of enriched Bd20S with PA28α and the β1 substrate Ac-nPnD-amc (50 mM HEPES pH 7.5, 1 mM DTT), no preincubation stated, rate of amc release read between 60 and 90 min, 8 µL volume.; format: biochemical; conditions: n = 3
Procedure: (§1) To assess the enzyme activity, 8 ng of purified preparation was preincubated with 0 to 4000 nM recombinant human PA28α for 1 h at room temperature (RT). The enzyme activity was then assayed with 50 μM Suc-LLVY-amc in 50 mM HEPES, pH 7.5, and 1 mM DTT in the presence of 250 nM PA28α. To evaluate the substrate specificity for β5, β2, and β1 subunits, a set of available proteasome substrates was screened that included Suc-LLVY-amc, Z-VLR-amc and Z-LLE-amc, Ac-FnKL-amc, Ac-nPnD-amc, Ac-RYFD-amc, Ac-FRSR-amc, and Ac-GWYL-amc. Bd20S was initially activated with PA28α and the rate of release of 7-amino-4-methyl coumarin (amc) was quantified over time following addition of the substrates. For control, 6 μM marizomib (MZB, MedChemExpress) was used to ensure substrate cleavage by proteasome. For inhibition studies, IC50 values were measured using presteady-state enzyme kinetics. Five or 100 nL of inhibitor at concentrations ranging from 10 mM to 170 nM was dispensed using the ECHO 650 liquid handler (Beckman). Subsequently, 4 μL of 100 μM substrate was added, followed by 4 μL of Bd20S, and the release of amc was immediately measured. The IC50 values were calculated from the fluorescence units per second (RFU/s) recorded between 60 and 90 min after the reaction. […] Data were analyzed and plotted using GraphPad software.

[3] = test system: β2 subunit of Bd20S; test: Fluorogenic kinetic assay of enriched Bd20S with PA28α and the β2 substrate Z-VLR-amc (50 mM HEPES pH 7.5, 1 mM DTT), no preincubation stated, rate of amc release read between 60 and 90 min, 8 µL volume.; format: biochemical; conditions: n = 3
Procedure: as §1

[4] = test system: β5 subunit of Bd20S; test: Fluorogenic kinetic assay of enriched Bd20S with PA28α and the β5 substrate Ac-FnKL-amc (50 mM HEPES pH 7.5, 1 mM DTT), no preincubation stated, rate of amc release read between 60 and 90 min, 8 µL volume.; format: biochemical; conditions: n = 3
Procedure: as §1

[5] = test system: B. divergens proteasome β5 subunit; format: biochemical, Babesia divergens; conditions: Suc-LLVY-amc; for proteasome activity relative to activity with PA28α: Buffer B
Procedure: (§2) B. divergens and B. microti protein lysates were prepared from infected red blood cells. Briefly, red blood cells were lysed with 0.15% saponin prepared in 1× Phosphate-Buffered Saline (PBS), pH 7.5, to release intact parasites. Parasites were washed with 1× PBS, pH 7.5 (PBS), by centrifugation and the pellets were stored at −80 °C in PBS plus 20% glycerol. To prepare protein lysates for enzymatic assays, parasites were thawed and transferred to 50 mM HEPES (pH 7.5), 10 μM E64, 100 μM AESBF, 1 μM Pepstatin A, and 1 mM DTT (all Sigma-Aldrich). Cells were ruptured by ultrasonication with an amplitude of 0.5 for 3 cycles of 15 s on ice. To prepare protein lysates for activity-based probing and proteasome purification, parasites were thawed and transferred to 20 mM Tris-HCl, pH 7.5, 1 mM DTT, 10 μM E64, and 5% glycerol. The lysate was sonicated on ice for 3 times and clarified by centrifugation at 17,000g for 10 min at 4 °C.
To further improve the detection of the β5 subunit activity with the Suc-LLVY-amc substrate of the Babesia proteasome as previously published,[27] we aimed to further optimize assay conditions. However, to reduce the number of experimental animals in the study, assay conditions were optimized using protein lysates of B. divergens, which can be grown in vitro, instead of B. microti lysates, which need to be maintained in mice. […] Assay conditions were optimized in 50 μL volumes in round-bottom 96-well plates. Two assay buffers were evaluated. Buffer A, as described previously,[27] consists of 20 mM HEPES, pH 8, 1 mM ATP, and 1 μM E64, while Buffer B consists of 50 mM HEPES, pH 7.5, 5 mM ATP, 10 μM E64, 100 μM AESBF, 1 μM Pepstatin A, and 1 mM DTT. Buffers A and B were tested with either 0.02% SDS or 6.67 ng of PA28 as activators of the proteasome activity. […] The release of the AMC fluorophore was monitored at 37 °C in a Synergy HTX multimode reader (BioTek) with excitation and emission wavelengths set to 340 and 460 nm, respectively.
Proteasome activity in B. microti and B. divergens lysates was screened in the presence of carmaphycin B (CPB) and numerous analogs that were previously designed to target the P. falciparum 20S proteasome.[30] A pool of lysates was made for each species to ensure that equal amounts of the lysates were used in each inhibition reaction. Inhibitors were transferred to black 384-well plates with the ATS acoustic transfer system (ATS-100, Biosera). Lysates were incubated with inhibitors for 30 min at room temperature and activity was assayed in 30 μL reactions. Each reaction mixture contained 5 μL of Babesia lysate, 10 nL of the inhibitor (final concentration of 133.33 nM), and 25 μL of assay buffer with 25 μM substrate succinyl-Leu-Leu-Val-Tyr-7-amido-4-methylcoumarin (Suc-LLVY-amc). The release of the AMC fluorophore was monitored at 37 °C in a Synergy HTX multimode reader (BioTek Instruments, Winooski, VT) with excitation and emission wavelengths set to 340 and 460 nm, respectively. Activity was quantified as RFU per second and normalized to the DMSO control reactions.

[6] = test system: B. microti proteasome β5 subunit; test: β5 proteasome activity in B. microti lysates (Suc-LLVY-amc); format: biochemical, Babesia microti; conditions: 133.33 nM inhibitor, relative to DMSO
Procedure: as §2
To further improve the detection of the β5 subunit activity with the Suc-LLVY-amc substrate of the Babesia proteasome as previously published,[27] we aimed to further optimize assay conditions. However, to reduce the number of experimental animals in the study, assay conditions were optimized using protein lysates of B. divergens, which can be grown in vitro, instead of B. microti lysates, which need to be maintained in mice. […] Two assay buffers were evaluated. […] The release of the AMC fluorophore was monitored at 37 °C in a Synergy HTX multimode reader (BioTek) with excitation and emission wavelengths set to 340 and 460 nm, respectively.
Proteasome activity in B. microti and B. divergens lysates was screened in the presence of carmaphycin B (CPB) and numerous analogs that were previously designed to target the P. falciparum 20S proteasome.[30] […] The release of the AMC fluorophore was monitored at 37 °C in a Synergy HTX multimode reader (BioTek Instruments, Winooski, VT) with excitation and emission wavelengths set to 340 and 460 nm, respectively. Activity was quantified as RFU per second and normalized to the DMSO control reactions.

[7] = test system: endogenous polyubiquitinated proteins in B. divergens; test: Western blot of polyubiquitinated proteins in treated B. divergens cultures; format: cell-based, Babesia divergens; conditions: 200 nM, 24 h, anti-Ubiquitin K48 western blot, vs 0.1% DMSO
Procedure: To assess the on-target effect of proteasome inhibition, protein lysates of B. divergens isolated from bovine erythrocyte cultures were evaluated for the accumulation of polyubiquitinated proteins. The B. divergens cultures underwent two 12 h treatments (totaling 24 h) with 200 nM of the inhibitor in culture medium. Parasites were released from RBCs and protein lysates were prepared as described above. The resulting samples were then centrifuged at 15,000g for 15 min at 4 °C and protein concentrations of the resulting supernatant were determined using Bradford assay.[29] Samples were prepared for SDS-PAGE in reducing Laemmli buffer supplemented with β-mercaptoethanol. Ten micrograms of protein was applied per lane and proteins were separated on gradient (4–15%) Criterion TGX Stain-Free Precast gels (BioRad) in Tris-Glycine-SDS running buffer (25 mM Tris, 192 mM glycine, and 0.1% (w/vol) SDS, pH 8.3) and visualized using TGX stain-free chemistry (BioRad). […] After washing (3 × 10 min) in PBS-T, signals were detected using Clarity Max Western ECL substrate (BioRad), visualized using a ChemiDoc MP imager, analyzed, and adjusted using the ImageLab freeware (BioRad).

[8] = test system: catalytic subunits of Bd20S; test: Activity-based probe labeling (Me4BodipyFL-Ahx3Leu3VS) of Bd20S catalytic subunits; format: binding, Babesia divergens; conditions: lysates from CFZ- and CPB-treated cells, vs vehicle
[9] = test system: Bd20S; test: Fluorogenic substrate screen with Bd20S/PA28α with and without marizomib; format: biochemical, Babesia divergens; conditions: 6 μM MZB
Procedure: as §1

Q: With `COc1ccc(C[C@H](NC(=O)[C@H](C)NC(=O)CN2CCOCC2)C(=O)N[C@@H](Cc2ccccc2)C(=O)C2(C)CO2)cc1` (stereo in doubt) [ONX-0914] as the compound, how does the “concentration range significantly reducing B. divergens growth” value [1] read?
A: 25 to 200 nM

Q: With `CCCCCC(=O)N[C@H](C(=O)N[C@@H](CCS(C)(=O)=O)C(=O)N[C@@H](CC(C)C)C(=O)[C@@]1(C)CO1)C(C)C` [CPB, carmaphycin B] as the compound, how does the IC50 [2] read?
A: > 3000 nM

Q: And the IC50 [3]?
A: 34.3 nM

Q: And the IC50 [4]?
A: 27.9 nM

Q: With `CC(C)C[C@H](NC(=O)[C@H](CCc1ccccc1)NC(=O)CN1CCOCC1)C(=O)N[C@@H](Cc1ccccc1)C(=O)N[C@@H](CC(C)C)C(=O)[C@@]1(C)CO1` [carfilzomib] as the compound, how does the “inhibition of β5 activity in B. divergens lysate (in words)” value ([5]; 133.33 nM inhibitor, relative to DMSO) read?
A: completely inactivate

Q: And the “decrease of enzyme activity” value ([5]; B. divergens lysate, with PA28α)?
A: > 95%

Q: What about the “inhibition of β5 activity in B. microti lysate (in words)” value [6] of the same compound?
A: inhibited

Q: And the “accumulation of endogenous polyubiquitinated proteins” value [7]?
A: marked accumulation

Q: And the “labeling of catalytic subunits by activity-based probe” value [8]?
A: significantly reduced

Q: And the “concentration range significantly reducing B. divergens growth” value [1]?
A: 25 to 200 nM

Q: What about the EC50 ([1]; read-out: EC50 B. divergens growth) of the same compound?
A: 29 nM

Q: For `CC[C@H](C)[C@H](NC(=O)[C@H]([C@@H](C)CC)N(C)C(C)=O)C(=O)N[C@H](C(=O)N[C@@H](CC(C)C)C(=O)[C@@]1(C)CO1)[C@@H](C)O` [epoxomicin], which “concentration range significantly reducing B. divergens growth” value [1] is on record?
A: 25 to 200 nM

Q: For `C[C@@]12OC(=O)[C@]1([C@@H](O)[C@@H]1C=CCCC1)NC(=O)[C@@H]2CCCl` [marizomib], which “activity with all fluorogenic substrates in presence of inhibitor” value [9] is on record?
A: eliminated

Q: For “PA28α: recombinant human proteasome activator PA28α (Uniprot Q06323)”, which “increase of enzyme activity by activator” value ([5]; B. divergens lysate, compared with SDS) is on record?
A: 3 fold

Q: For “PA28β: human proteasome activator subunit PA28β (BioTechne #E-382)”, which “proteasome activity relative to activity with PA28α” value ([5]; B. divergens lysate) is on record?
A: 14.41%

Q: With “PA28γ: human proteasome activator subunit PA28γ (BioTechne #E-384)” as the compound, how does the “proteasome activity relative to activity with PA28α” value ([5]; B. divergens lysate) read?
A: 12.83%

From paper PMC11561622, “Evaluating Antimalarial Proteasome Inhibitors for Efficacy in Babesia Blood Stage Cultures” (ACS Omega, 2024)
